Patent US11866433B2, “Diarylthiohydantoin compound as androgen receptor antagonist” (CHIA TAI TIANQING PHARMACEUTICAL GROUP CO., LTD., priority 2017, dated 2024)

How the values were obtained:
androgen receptor (AR) = target: T1, androgen receptor (AR) (Homo sapiens, UniProt P10275); assay: Antagonism of compounds on nuclear translocation of androgen receptor (PathHunter NHR cell lines); assay type: cell-based; settings: antagonist mode, agonist 6a-Fluorotestosterone 0.06 μM (EC80)
T1 sequence (P10275 1-920): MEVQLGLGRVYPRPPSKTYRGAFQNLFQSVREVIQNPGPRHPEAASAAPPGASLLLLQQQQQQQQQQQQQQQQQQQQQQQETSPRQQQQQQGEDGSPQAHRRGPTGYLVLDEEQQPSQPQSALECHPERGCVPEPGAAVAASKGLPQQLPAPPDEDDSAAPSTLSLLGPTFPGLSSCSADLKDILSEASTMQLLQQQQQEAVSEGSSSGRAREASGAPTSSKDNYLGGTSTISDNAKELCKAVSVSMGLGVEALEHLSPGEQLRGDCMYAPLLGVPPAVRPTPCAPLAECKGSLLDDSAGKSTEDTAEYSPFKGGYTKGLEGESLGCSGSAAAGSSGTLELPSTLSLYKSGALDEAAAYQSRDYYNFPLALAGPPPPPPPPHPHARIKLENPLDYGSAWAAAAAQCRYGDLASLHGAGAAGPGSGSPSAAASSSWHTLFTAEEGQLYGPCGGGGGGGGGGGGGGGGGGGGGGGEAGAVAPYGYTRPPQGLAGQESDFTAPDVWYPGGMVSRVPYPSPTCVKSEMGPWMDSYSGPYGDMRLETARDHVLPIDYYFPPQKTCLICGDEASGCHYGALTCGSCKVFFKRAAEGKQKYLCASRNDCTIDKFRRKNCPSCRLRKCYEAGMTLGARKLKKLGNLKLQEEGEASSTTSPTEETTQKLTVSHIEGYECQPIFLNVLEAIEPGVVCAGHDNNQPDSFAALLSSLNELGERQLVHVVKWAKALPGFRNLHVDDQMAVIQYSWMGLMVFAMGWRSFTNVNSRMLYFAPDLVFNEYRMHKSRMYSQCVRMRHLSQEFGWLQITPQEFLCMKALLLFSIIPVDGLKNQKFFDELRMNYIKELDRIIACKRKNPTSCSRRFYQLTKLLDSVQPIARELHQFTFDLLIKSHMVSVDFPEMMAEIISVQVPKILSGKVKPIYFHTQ
Protocol: Example 75 Test of Antagonism of Compounds on Nuclear Translocation of Androgen Receptor (AR)
1. PathHunter NHR cell lines were recovered and cultured for amplification.
2. The cells were inoculated onto a 384-well plate prior to testing, and incubated at 37° C. The serum for culture was filtered with charcoal-dextran to reduce the hormone level therein.
3. In the detection of the antagonistic function, a compound was added to the cells and incubated for 60 min. The working concentration of the test compound was diluted from 10 μM at a 3-fold concentration gradient, respectively including: […]. Then, an agonist 6a-Fluorotestosterone 0.06 μM (concentration: EC80, i.e., 80% agonistic compound concentration) was added, and the mixture was incubated at 37° C. or at room temperature for 3-16 h.
4. Signal detection: 12.5 μL or 15 μL (50%, v/v) PathHunter detection mixed solution (kit: DiscoverX product catalog number: 93-0001 series) was added, and incubated at room temperature for 1 h. The chemiluminescent signal was read with a PerkinElmer Envision™ instrument.
5. Data analysis: The compound activity was analyzed with CBIS data analysis software (ChemInnovation, CA). The calculation formula of the inhibition percent of the antagonist is as follows: IC50 inhibition ratio (%)=[…]×(1−(average RLU value of the test compound−average RLU value of the blank control group)/(average RLU value of EC80 control group−average RLU value of the blank control group)).

[1] = Tissue distribution test of Compound 27 and Compound 10 (plasma and brain); assay type: in vivo; settings: intragastric 2 mg/kg, 2 h after administration, male CD-1 mice
Protocol: Taking male CD-1 mice as test animals, drug concentrations in plasma and brain after intragastric administration of Compound 27 and Compound 10 to the mice were determined by the LC/MS/MS method, respectively.
2.2 Test Animals: Six healthy adult male CD-1 mice were divided into 2 groups, with 3 mice in each group, according to the principle of similar body weight. The animals were purchased from Shanghai Super-BK Laboratory Animal Co., Ltd., with Animal Production License No.: SCXK (Shanghai) 2013-0016.
An appropriate amount of sample was weighed, and an appropriate amount of DMSO, PEG400 and water were added successively at a volume ratio of 10:40:50. After stirring and ultrasonic processing, the resulting mixture reached a clear solution state of 0.4 mg/mL.
Six male CD-1 mice were divided into 2 groups, fasted overnight, and intragastrically administered at an administration volume of 5 mL/kg in a dose of 2 mg/kg.
After Compound 27 and Compound 10 were intragastrically administered to the male CD-1 mice, 100 μL of blood was collected by cardiac puncture at 2 h, placed in a test tube containing 2 μl of EDTA-K2, and centrifuged at 3000 g for 15 min to separate 50 μL of plasma, which was stored at −60° C. Meanwhile, brain tissues were collected, washed, then homogenized with 5-fold 15 mM PBS/MeOH (v:v, 2:1), and stored at −60° C. The animals were allowed to eat 2 hours after administration.
After intragastric administration to the mice, the content of the test compound in plasma and brain was determined by the LC/MS/MS method. The linear range of the method was 2.00-6000 nmol/L; and the plasma samples were analyzed after the treatment with acetonitrile precipitated protein.

[2] = test system: Human prostate cancer LNCaP-FGC cells; assay: In vivo pharmacodynamic study on subcutaneous xenograft tumor model of human prostate cancer LNCaP-FGC cells; parameters: species or system CB-17 SCID mice; settings: 50 mg/kg PO QD, after 21 days of administration, vs solvent control
Protocol: 2.1 Experimental Animals • Species: Mice • Strain: CB-17 SCID mice • Week age and body weight: 6-8 weeks old, 18-22 g body weight • Gender: male • Supplier: Beijing Vital River Laboratory Animal Technology Co., Ltd • Animal Certificate No.: 11400700184227 3. Experimental Method and Steps 3.1 Cell Culture
Human prostate cancer LNCaP-FGC cells (ATCC, Manassas, Virginia) were cultured in vitro monolayers under the culture conditions of RPM11640 medium supplemented with […] fetal bovine serum at 37° C. with 5% CO2. Routine digestion treatment with trypsin-EDTA was performed twice a week for passage. When the cell saturation was 80%-90%, the cells were collected, counted, and inoculated.
0.2 mL (10×10^6) of LNCaP-FGC cells (10×10^6+Matrigel, 1:1) was inoculated subcutaneously to the right back of each CB-17 SCID mouse. When the average tumor volume reached 100-150 mm^3, administration in groups was started.
The tumor diameters were measured with a vernier caliper twice a week. The calculation formula of the tumor volume is: V=0.5a×b^2, wherein a and b represent the long diameter and the short diameter of the tumor, respectively. The antitumor efficacy of the compounds were evaluated by TGI (%) or a relative tumor proliferation rate T/C (%). TGI(%)=[(1−(average tumor volume of a treatment group at the end of drug administration−average tumor volume of the treatment group at the beginning of drug administration))/(average tumor volume of the vehicle control group at the end of treatment−average tumor volume of the vehicle control group at the beginning of treatment)]×100%. The calculation formula of the relative tumor proliferation rate T/C (%) is as follows: T/C %=TRTV/CRTV×100% (TRTV: RTV of a treatment group; CRTV: RTV of a negative control group). The relative tumor volume (RTV) is calculated based on the tumor measurement results, and the calculation formula is RTV=Vt/V0, wherein V0 is the average tumor volume measured at the time of administration in groups (i.e., do), Vt is the average tumor volume at one measurement, and TRTV and CRTV are the data obtained on the same day.
The statistical analysis includes mean and standard error of mean (SEM) of the tumor volume at each time point for each group. […] The comparison between two groups was analyzed by T-test, and the comparison between three or more groups was analyzed by one-way ANOVA. If there was a significant difference in the F value, the Games-Howell method was used for testing. If there was no significant difference in the F value, the Dunnet (2-sided) method was used for analysis. All data analysis was performed by using SPSS 17.0. “p<0.05” was considered a significant difference.

| Compound | IC50 (androgen receptor (AR)) | also measured |
| --- | --- | --- |
| CCc1nc(OCCO)c2cc(N3C(=S)N(c4ccc(C#N)c(C(F)(F)F)c4)C(=O)C3(C)C)ccc2n1 [Compound 27] | 2210 nM | Concentration in Brain [1]: 85.2 ± 21.9 nmol/kg; Kp at 2 h ([1]; mouse, brain / plasma, oral, read-out: Brain to Blood Ratio): 0.00917 ± 0.0004; concentration at 2 h ([1]; mouse, plasma, oral): 9.25 ± 2.11 µM; TGI [2]: 51.0%; relative tumor proliferation rate T/C [2]: 53.1% |
| CC1(C)C(=O)N(c2ccc(C#N)c(C(F)(F)F)c2)C(=S)N1c1cc(F)c2nc(C3CC3)nc(OCCO)c2c1 [Compound 18] | 2840 nM |  |
| CC1(C)C(=O)N(c2ccc(C#N)c(C(F)(F)F)c2)C(=S)N1c1cc(F)c2nc(C(F)F)cc(=O)n2c1 [Compound 62] | 1690 nM |  |
| CCc1nc(OCC(N)=O)c2cc(N3C(=S)N(c4ccc(C#N)c(C(F)(F)F)c4)C(=O)C3(C)C)cc(F)c2n1 [Compound 32] | 6760 nM |  |
| CCc1nc(OCC2COC2)c2cc(N3C(=S)N(c4ccc(C#N)c(C(F)(F)F)c4)C(=O)C3(C)C)cc(F)c2n1 [Compound 29] | 830 nM |  |
| CCc1nc(OCCCS(C)(=O)=O)c2cc(N3C(=S)N(c4ccc(C#N)c(C(F)(F)F)c4)C(=O)C3(C)C)cc(F)c2n1 [Compound 22] | 2360 nM |  |
| CCc1nc2c(F)cc(N3C(=S)N(c4ccc(C#N)c(C(F)(F)F)c4)C(=O)C3(C)C)cn2c(=O)c1OCCOC [Compound 40] | 2150 nM |  |
| CCOc1nc(OCCO)c2cc(N3C(=S)N(c4ccc(C#N)c(C(F)(F)F)c4)C(=O)C3(C)C)cc(F)c2n1 [Compound 70] | 4270 nM |  |
| CCc1cc(=O)n2cc(N3C(=S)N(c4ccc(C#N)c(C(F)(F)F)c4)C(=O)C3(C)C)cc(Cl)c2n1 [Compound 61] | 1450 nM |  |
| CCc1nc2ccc(N3C(=S)N(c4ccc(C#N)c(C(F)(F)F)c4)C(=O)C3(C)C)cn2c(=O)c1OCCOC [Compound 37] | 4470 nM |  |
| CC1(C)C(=O)N(c2cnc(C#N)c(C(F)(F)F)c2)C(=S)N1c1cc(F)c2nc(C(F)F)nc(OCCO)c2c1 [Compound 26] | 1710 nM |  |
| CCc1cc(=O)n2cc(-n3c(=S)n(-c4ccc(C#N)c(C(F)(F)F)c4)c4nccc(C)c43)cc(F)c2n1 [Compound 66] | 7120 nM |  |
| CCc1nc2c(F)cc(-n3c(=S)n(-c4ccc(C#N)c(C(F)(F)F)c4)c4nccc(C)c43)cc2c(=O)[nH]1 [Compound 45] | 2640 nM |  |
| CCc1cc(=O)n2cc(N3C(=S)N(c4cnc(C#N)c(C(F)(F)F)c4)C(=O)C3(C)C)cc(F)c2n1 [Compound 53] | 2110 nM |  |
| CCc1nc(OC2CCOCC2)c2cc(N3C(=S)N(c4ccc(C#N)c(C(F)(F)F)c4)C(=O)C3(C)C)cc(F)c2n1 [Compound 19] | 1860 nM |  |
| CCc1nc(OCCO)c2cc(N3C(=S)N(c4ccc(C#N)c(C(F)(F)F)c4)C(=O)C34CCC4)cc(F)c2n1 [Compound 20] | 1560 nM |  |
| CNc1nc(OCCO)c2cc(N3C(=S)N(c4ccc(C#N)c(C(F)(F)F)c4)C(=O)C3(C)C)ccc2n1 [Compound 16] | 3910 nM |  |
| CCc1nc2c(F)cc(N3C(=S)N(c4ccc(C#N)c(C(F)(F)F)c4)C(=O)C3(C)C)cn2c(=O)c1OCCO [Compound 41] | 2750 nM |  |
| CCc1nc(OCCO)c2cc(N3C(=S)N(c4cnc(C#N)c(C(F)(F)F)c4)C(=O)C34CCC4)cc(F)c2n1 [Compound 25] | 1220 nM |  |
| COCc1cc(=O)n2cc(N3C(=S)N(c4ccc(C#N)c(C(F)(F)F)c4)C(=O)C3(C)C)cc(F)c2n1 [Compound 69] | 4000 nM |  |
| COc1nc(OCCO)c2cc(N3C(=S)N(c4ccc(C#N)c(C(F)(F)F)c4)C(=O)C3(C)C)cc(F)c2n1 [Compound 71] | 2760 nM |  |
